The target in assay [1] is Proto-oncogene tyrosine-protein kinase Src (Gallus gallus, UniProt P00523). Description: Ability to prevent phosphorylation of avian c-Src TK.
The target of assay [2] is Platelet-derived growth factor receptor beta (Mus musculus, UniProt P05622). Description: Ability to prevent phosphorylation of isolated mouse PDGF receptor beta.
Assay [3] addresses Fibroblast growth factor receptor 1 (Homo sapiens, UniProt P11362).
Description: Ability to prevent phosphorylation of human fibroblast growth factor receptor 1
The target in assay [4] is Cyclin-dependent kinase 4 (Homo sapiens, UniProt P11802). Description: Inhibition of cyclin dependent kinase 4 (CDK4).
The subject of assay [5] is C6. As to the kind of experiment: Inhibition of C-6 rat glioma cell proliferation. In kind it is functional, cell-based.
Assay [6] relates to HCT-8. Description: Inhibition of human colon carcinoma HCT-8 cell proliferation. In kind it is functional, cell-based.
For assay [7], the system named is HT-29. Description: Inhibition of human colon carcinoma HT-29 cell proliferation. In kind it is functional, cell-based.
Assay [8] has as its target Protein kinase C (PKC). Description: Inhibition of protein kinase C. It is filed as protein assay.
In assay [9] the test system is NIH3T3. As to the kind of experiment: Inhibition of NIH3T3/PDGF Mouse transfected fibroblasts cell line. It is filed as functional, cell-based.
Assay [10] is described as follows: Inhibition of MEK1/ERK (MAP kinase kinase) in cascade assay.
The target in assay [11] is T1, Platelet-derived growth factor receptor (PDGFr) (Rattus norvegicus, UniProt P20786+Q05030). Description: (§1) Inhibition of PDGF receptor autophosphorylation in rat aortic vascular smooth muscle cells.
The test system of assay [12] is SW-620. As to the kind of experiment: Inhibition of human colon carcinoma SW-620 cell proliferation. In kind it is functional, cell-based.
Assay [13] has as its target T1, Platelet-derived growth factor receptor (PDGFr). The description is as §1. In kind it is functional.
Assay [14] can be described thus: Inhibition of MEK1/ERK (MAP Kinase kinase) in cascade assay.
Assay [15] concerns the target Insulin receptor (Homo sapiens, UniProt P06213). As to the kind of experiment: Inhibition of insulin receptor kinase.

Chain of Fibroblast growth factor receptor 1 (P11362 whole entry): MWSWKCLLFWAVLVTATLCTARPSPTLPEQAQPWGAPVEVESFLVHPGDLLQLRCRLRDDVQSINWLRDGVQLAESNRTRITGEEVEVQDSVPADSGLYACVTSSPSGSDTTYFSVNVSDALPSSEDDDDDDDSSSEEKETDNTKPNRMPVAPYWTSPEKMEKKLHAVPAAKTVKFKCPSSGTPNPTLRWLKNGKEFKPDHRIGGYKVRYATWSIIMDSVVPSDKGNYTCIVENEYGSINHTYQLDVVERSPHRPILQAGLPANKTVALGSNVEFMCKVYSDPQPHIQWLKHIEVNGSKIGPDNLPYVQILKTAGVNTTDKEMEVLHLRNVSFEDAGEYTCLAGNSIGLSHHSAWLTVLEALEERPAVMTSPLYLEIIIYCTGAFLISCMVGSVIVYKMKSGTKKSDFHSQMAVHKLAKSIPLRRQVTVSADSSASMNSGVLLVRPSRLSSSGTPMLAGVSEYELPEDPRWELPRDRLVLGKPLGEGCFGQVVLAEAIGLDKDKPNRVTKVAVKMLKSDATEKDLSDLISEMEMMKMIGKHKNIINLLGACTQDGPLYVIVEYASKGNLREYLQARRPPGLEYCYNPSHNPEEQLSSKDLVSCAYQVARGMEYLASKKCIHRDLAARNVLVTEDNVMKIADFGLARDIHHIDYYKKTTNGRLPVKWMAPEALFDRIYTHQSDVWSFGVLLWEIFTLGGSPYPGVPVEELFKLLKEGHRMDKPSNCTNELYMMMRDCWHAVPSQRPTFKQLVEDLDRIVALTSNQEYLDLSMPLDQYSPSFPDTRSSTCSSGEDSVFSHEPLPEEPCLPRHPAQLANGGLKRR
Chain of Platelet-derived growth factor receptor beta (P05622 whole entry): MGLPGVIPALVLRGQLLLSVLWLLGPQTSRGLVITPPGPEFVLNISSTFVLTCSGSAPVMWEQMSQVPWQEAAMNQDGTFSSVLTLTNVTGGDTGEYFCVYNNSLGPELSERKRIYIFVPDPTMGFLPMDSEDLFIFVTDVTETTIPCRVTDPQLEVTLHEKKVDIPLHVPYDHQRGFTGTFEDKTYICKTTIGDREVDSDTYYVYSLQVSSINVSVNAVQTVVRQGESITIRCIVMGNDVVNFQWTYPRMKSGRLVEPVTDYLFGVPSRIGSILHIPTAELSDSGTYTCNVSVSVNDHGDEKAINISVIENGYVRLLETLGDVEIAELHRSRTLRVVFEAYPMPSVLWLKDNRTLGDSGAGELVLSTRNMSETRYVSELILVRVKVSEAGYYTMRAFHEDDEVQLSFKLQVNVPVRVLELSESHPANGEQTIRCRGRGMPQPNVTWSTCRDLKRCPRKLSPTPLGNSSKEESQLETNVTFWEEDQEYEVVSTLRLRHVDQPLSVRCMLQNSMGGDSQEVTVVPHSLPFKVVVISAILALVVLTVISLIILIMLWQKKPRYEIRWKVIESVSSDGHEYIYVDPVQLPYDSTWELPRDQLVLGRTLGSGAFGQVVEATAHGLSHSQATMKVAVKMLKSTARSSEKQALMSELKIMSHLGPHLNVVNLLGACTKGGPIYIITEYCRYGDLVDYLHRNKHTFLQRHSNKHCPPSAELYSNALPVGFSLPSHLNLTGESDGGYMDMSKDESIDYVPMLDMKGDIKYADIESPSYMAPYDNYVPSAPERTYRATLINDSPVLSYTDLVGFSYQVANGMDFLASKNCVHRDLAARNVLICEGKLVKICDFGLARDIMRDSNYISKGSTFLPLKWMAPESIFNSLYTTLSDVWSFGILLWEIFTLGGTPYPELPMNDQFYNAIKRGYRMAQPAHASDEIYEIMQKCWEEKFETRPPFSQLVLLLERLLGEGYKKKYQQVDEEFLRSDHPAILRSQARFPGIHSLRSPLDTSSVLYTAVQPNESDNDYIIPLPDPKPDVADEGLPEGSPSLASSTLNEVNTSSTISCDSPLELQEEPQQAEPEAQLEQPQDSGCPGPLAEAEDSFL
Chain of Cyclin-dependent kinase 4 (P11802 whole entry): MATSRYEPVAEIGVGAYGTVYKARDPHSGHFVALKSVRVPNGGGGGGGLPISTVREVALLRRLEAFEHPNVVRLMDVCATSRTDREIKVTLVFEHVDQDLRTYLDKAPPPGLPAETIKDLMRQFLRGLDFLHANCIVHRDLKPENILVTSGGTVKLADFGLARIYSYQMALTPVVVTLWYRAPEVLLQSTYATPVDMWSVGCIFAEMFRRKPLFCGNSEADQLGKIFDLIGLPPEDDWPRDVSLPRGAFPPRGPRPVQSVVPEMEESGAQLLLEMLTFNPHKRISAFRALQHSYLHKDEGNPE
Chain of Insulin receptor (P06213 28-758 limits assumed): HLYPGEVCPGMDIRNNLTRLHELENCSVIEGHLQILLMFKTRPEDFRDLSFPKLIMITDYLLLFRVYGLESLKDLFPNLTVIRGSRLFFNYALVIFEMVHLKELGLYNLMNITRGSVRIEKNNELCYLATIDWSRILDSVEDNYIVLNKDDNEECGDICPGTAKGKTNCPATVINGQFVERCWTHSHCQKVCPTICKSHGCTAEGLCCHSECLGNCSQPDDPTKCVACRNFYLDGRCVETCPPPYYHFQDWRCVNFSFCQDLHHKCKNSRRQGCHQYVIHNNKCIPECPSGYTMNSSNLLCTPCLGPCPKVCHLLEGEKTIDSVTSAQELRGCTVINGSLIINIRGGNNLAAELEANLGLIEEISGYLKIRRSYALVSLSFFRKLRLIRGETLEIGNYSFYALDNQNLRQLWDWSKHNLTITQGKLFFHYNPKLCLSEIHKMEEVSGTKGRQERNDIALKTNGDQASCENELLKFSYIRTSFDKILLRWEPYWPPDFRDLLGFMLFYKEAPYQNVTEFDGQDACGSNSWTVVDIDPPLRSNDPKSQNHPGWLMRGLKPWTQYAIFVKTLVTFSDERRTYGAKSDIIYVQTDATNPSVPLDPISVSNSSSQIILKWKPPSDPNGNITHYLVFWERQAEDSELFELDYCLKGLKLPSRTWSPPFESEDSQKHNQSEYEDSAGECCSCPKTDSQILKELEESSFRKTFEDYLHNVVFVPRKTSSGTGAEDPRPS
Chain of Insulin receptor (P06213 763-1382 limits assumed): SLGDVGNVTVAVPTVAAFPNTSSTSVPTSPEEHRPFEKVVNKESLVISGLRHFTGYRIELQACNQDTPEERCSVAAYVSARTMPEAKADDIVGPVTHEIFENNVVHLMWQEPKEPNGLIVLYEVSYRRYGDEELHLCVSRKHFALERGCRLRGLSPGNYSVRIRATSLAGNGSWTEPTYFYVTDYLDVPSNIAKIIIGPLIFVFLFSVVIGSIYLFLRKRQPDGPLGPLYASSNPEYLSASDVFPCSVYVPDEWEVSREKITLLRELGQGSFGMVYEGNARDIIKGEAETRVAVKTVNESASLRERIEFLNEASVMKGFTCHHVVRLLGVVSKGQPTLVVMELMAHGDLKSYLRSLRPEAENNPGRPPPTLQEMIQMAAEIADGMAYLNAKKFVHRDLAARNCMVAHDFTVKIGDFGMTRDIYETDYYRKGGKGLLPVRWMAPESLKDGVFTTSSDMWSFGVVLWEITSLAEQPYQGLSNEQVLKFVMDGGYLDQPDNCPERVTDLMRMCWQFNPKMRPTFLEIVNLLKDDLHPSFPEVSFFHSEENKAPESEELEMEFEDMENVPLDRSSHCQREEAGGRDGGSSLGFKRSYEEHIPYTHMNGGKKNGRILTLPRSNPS

Consider `CN1CCN(CCCNc2ncc3cc(-c4c(Cl)cccc4Cl)c(NC(N)=O)nc3n2)CC1`, for which the IC50 in [1] worked out at 0.061 µM; in assay [2], 2.4 µM; in assay [3] it was 0.14 µM.
The matching figures for `C=CCNC(=O)Nc1nc2nc(NCCCN3CCN(C)CC3)ncc2cc1-c1c(Cl)cccc1Cl`: 0.022 µM, 0.76 µM and 0.035 µM.
The matching figures for `CCN(CC)C(=O)Nc1nc2nc(NCCCN3CCN(C)CC3)ncc2cc1-c1c(Cl)cccc1Cl`: above 50 µM, above 50 µM and 5.5 µM.
For `CCN(CC)CCCCNc1ncc2cc(-c3c(Cl)cccc3Cl)c(NC(=O)NC3CCCCC3)nc2n1` the same measures were 0.012 µM, 0.33 µM and 0.043 µM.
`Cc1ccc(NC(=O)Nc2nc3nc(NCCCN4CCN(C)CC4)ncc3cc2-c2c(Cl)cccc2Cl)cc1`: the results for the IC50 in assay [1], in [2] and in assay [3] were 0.036 µM, 0.84 µM and 0.11 µM, respectively.
For `Cc1cc(C)c(C)c(-c2cc3cnc(N)nc3nc2N)c1C` the same measures were above 50 µM, above 50 µM and above 50 µM.
Turning to `CN1CCN(CCCNc2ncc3cc(-c4c(Cl)cccc4Cl)c(N)nc3n2)CC1`, the IC50 in assay [1] was determined as 0.18 µM; in assay [2] it was 9.6 µM; in assay [3], 0.45 µM.
The matching figures for `CN1CCN(CCCNc2ncc3cc(-c4c(Cl)cccc4Cl)c(NC(=O)Nc4ccc(Cl)c(Cl)c4)nc3n2)CC1`: 0.092 µM, 5 µM and 0.6 µM.
For `CN1CCN(CCCNc2ncc3cc(-c4c(Cl)cccc4Cl)c(N=C(N)Nc4ccccc4)nc3n2)CC1` the same measures were 0.86 µM, 37 µM and 2.8 µM.
The matching figures for `CCCC(=O)Nc1nc2nc(NCCCN3CCN(C)CC3)ncc2cc1-c1c(Cl)cccc1Cl`: 2.7 µM, above 50 µM and 3.7 µM.
`CCNC(=O)Nc1nc2nc(NCCCCN(CC)CC)ncc2cc1-c1c(Cl)cccc1Cl`: the IC50 in [4] is above 40 µM; in assay [5], 8.8 µM; in [6], 4.02 µM; in assay [7], 1.17 µM; in assay [8] it was above 50 µM; in assay [9], 1.01 µM. Also, the IC50 was above 5 µM in assay [10], 0.24 µM in assay [11] and 2.76 µM in assay [12].
As to `COc1ccccc1NC(=O)Nc1nc2nc(NCCCN3CCN(C)CC3)ncc2cc1-c1c(Cl)cccc1Cl`, the IC50 in assay [1] was found to be 0.016 µM; in assay [2] it was 0.66 µM; in assay [3], 0.067 µM.
The matching figures for `CN1CCN(CCCNc2ncc3cc(-c4c(Cl)cccc4Cl)c(NS(=O)(=O)c4ccccc4)nc3n2)CC1`: 0.022 µM, 6.9 µM and 0.068 µM.
With `CCN(CC)CCCNc1ncc2cc(-c3c(Cl)cccc3Cl)c(NC(=O)CC(C)(C)C)nc2n1`, the IC50 is 19 µM in assay [1], above 50 µM in assay [2] and 27 µM in assay [3].
As to `CN(C)CCNC(=O)Nc1nc2nc(NCCCN3CCN(C)CC3)ncc2cc1-c1c(Cl)cccc1Cl`, the IC50 amounted to 0.02 µM in assay [1], 2.4 µM in assay [2] and 0.075 µM in [3].
For `CN1CCN(CCCNc2ncc3cc(-c4c(Cl)cccc4Cl)c(NC(=O)Nc4ccccc4)nc3n2)CC1`, the IC50 in assay [5] is 6.7 µM; in assay [6] it was 4 µM; in [1], 0.015 µM; in [7] it was 1.5 µM; in assay [13] it was 0.37 µM; in assay [12], 4.1 µM.
Regarding `CCN(CC)CCCCNc1ncc2cc(-c3c(Cl)cccc3Cl)c(NC(=O)NC(C)(C)C)nc2n1`, the IC50 was above 40 µM in assay [4]; 5.8 µM in assay [5]; 2.8 µM in assay [14]; 16.3 µM in assay [6]; 0.0074 µM in assay [1]; 0.9 µM in assay [7]. Besides, the figures for the IC50 in assay [8] and in [12] were 23 µM and above 25 µM, respectively.
In the case of `CCN(CC)CCCCNc1ncc2cc(-c3c(Cl)cccc3Cl)c(NC(=S)NCCCN3CCOCC3)nc2n1`, the results for the IC50 in assay [1], in [2] and in [3] were 0.022 µM, 1.1 µM and 0.13 µM, respectively.
For `CN(C)CCCN(C)c1ncc2cc(-c3c(Cl)cccc3Cl)c(NC(=O)NC(C)(C)C)nc2n1` the same measures were 1.1 µM, 16 µM and 2 µM.
For `CCN(CC)CCCNc1ncc2cc(-c3c(Br)cccc3Br)c(N)nc2n1` the same measures were 0.76 µM, above 50 µM and 8.3 µM.
Consider `CCN(CC)CCCCNc1ncc2cc(-c3c(Cl)cccc3Cl)c(NC(=O)Nc3ccccc3)nc2n1`, for which the IC50 in assay [4] was above 40 µM; in [5] it was 8.1 µM; in assay [14], 5 µM; in assay [6], 3.2 µM; in assay [1], 0.0075 µM; in [7], 0.8 µM. Also, the IC50 in assay [8] was above 50 µM; in assay [11] it was 1.2 µM; in [15], above 50 µM; in [12] it was 2.6 µM.
As for `CCN(CC)CCCNc1ncc2cc(-c3c(Cl)cccc3Cl)c(/N=C\N(C)C)nc2n1`, the IC50 in assay [1] was 4 µM; in assay [2], above 50 µM; in assay [3], 10 µM.
For `CC(C)NC(=O)Nc1nc2nc(NCCCN3CCN(C)CC3)ncc2cc1-c1c(Cl)cccc1Cl` the same measures were 0.019 µM, 0.55 µM and 0.034 µM.
The matching figures for `CCN(CC)CCCNc1ncc2cc(-c3c(C)cccc3C)c(N)nc2n1`: 0.45 µM, 25 µM and 18 µM.
For the molecule `CN1CCN(CCCNc2ncc3cc(-c4c(Cl)cccc4Cl)c(NC(=O)NC(C)(C)C)nc3n2)CC1`, the IC50 is above 40 µM in assay [4]; 4 µM in assay [5]; 7 µM in assay [14]; above 15.2 µM in assay [6]; 11.1 µM in assay [7]; 22 µM in [8]. The IC50 was 1.08 µM in assay [9] and above 25 µM in [12].
Take `CN1CCN(CCCNc2ncc3cc(-c4c(Cl)cccc4Cl)c(NC(=O)NCCNC(=O)OC(C)(C)C)nc3n2)CC1`: the IC50 in assay [1] worked out at 0.15 µM; in assay [2], 4.2 µM; in assay [3], 0.067 µM.
Regarding `CCN(CC)CCNc1ncc2cc(-c3c(Cl)cccc3Cl)c(NC(=O)NC(C)(C)C)nc2n1`, the results for the IC50 in assay [1], in [2] and in [3] were 4.1 µM, 9 µM and 1.8 µM, respectively.
For `CN1CCN(CCCNc2ncc3cc(-c4c(Cl)cccc4Cl)c(NC(=O)NC45C[C@H]6C[C@@H](C4)C[C@@H](C5)C6)nc3n2)CC1` the same measures were 0.12 µM, 2.8 µM and 0.12 µM.
The matching figures for `CCNC(=O)Nc1nc2nc(NCCN(CC)CC)ncc2cc1-c1c(Cl)cccc1Cl`: 2.6 µM, 12 µM and 1.3 µM.
For `CCN(CC)CCCNc1ncc2cc(-c3c(Br)cccc3Br)c(NC(=O)NC(C)(C)C)nc2n1` the same measures were 0.097 µM, 1.1 µM and 0.19 µM.
`CN1CCN(CCCNc2ncc3cc(-c4c(Cl)cccc4Cl)c(NC(=O)Nc4ccc(Cl)cc4)nc3n2)CC1`: the IC50 in [1] was 0.04 µM; in [2] it was 1.8 µM; in [3] it was 0.12 µM.
Turning to `CN(C)CC(C)(C)CNc1ncc2cc(-c3c(Cl)cccc3Cl)c(NC(=O)NC(C)(C)C)nc2n1`, the results for the IC50 in assay [1], in [2] and in assay [3] were 3.5 µM, 3.2 µM and 0.21 µM, respectively.
For `CN1CCN(CCCNc2ncc3cc(-c4c(Cl)cccc4Cl)c(NC(=O)Cc4ccccc4)nc3n2)CC1` the same measures were 3.3 µM, above 50 µM and 6.8 µM.
For `CN1CCN(CCCNc2ncc3cc(-c4c(Cl)cccc4Cl)c(NC(=O)CC(C)(C)C)nc3n2)CC1` the same measures were 8.4 µM, above 50 µM and 8 µM.
The matching figures for `CCNC(=S)Nc1nc2nc(NCCCN(CC)CC)ncc2cc1-c1c(Cl)cccc1Cl`: 0.13 µM, 5 µM and 0.26 µM.
Consider `CCNC(=O)Nc1nc2nc(NCCCN3CCN(C)CC3)ncc2cc1-c1c(Cl)cccc1Cl`, for which the IC50 in assay [5] stood at 6.7 µM; in [6] it was 9.3 µM; in [1] it was 0.024 µM; in assay [7], 0.9 µM; in assay [12], 2.5 µM.

Source of the values: ChEMBL document CHEMBL1134497, “Soluble 2-substituted aminopyrido[2,3-d]pyrimidin-7-yl ureas. Structure-activity relationships against selected tyrosine kinases and exploration of in vitro and in vivo anticancer activity” (J Med Chem, 2001).
